Source: ChEMBL document CHEMBL3046108, “Comparison between antioxidant activity of 2,5-disubstituted 1,3,4-oxadiazoles containing heteroaromatic ring and aromatic ring at 2nd position” (Med Chem Res, 2011)
≈ marks a conversion by molar mass, not a printed value.

What was measured:
Format in all cases: functional
[1] = tested on: Radical scavenging activity; test: Antioxidant activity of the compound assessed as DPPH radical scavenging activity after 30 min
[2] = tested on: Radical scavenging activity; test: Antioxidant activity of the compound assessed as DPPH radical scavenging activity at 10 ug/ml after 30 min
[3] = tested on: Radical scavenging activity; test: Antioxidant activity of the compound assessed as DPPH radical scavenging activity at 6 ug/ml after 30 min
[4] = tested on: Radical scavenging activity; test: Antioxidant activity of the compound assessed as DPPH radical scavenging activity at 8 ug/ml after 30 min
[5] = tested on: Radical scavenging activity; test: Antioxidant activity of the compound assessed as DPPH radical scavenging activity at 2 ug/ml after 30 min
[6] = tested on: Radical scavenging activity; test: Antioxidant activity of the compound assessed as DPPH radical scavenging activity at 4 ug/ml after 30 min

| Compound | IC50 [1] [mg/L] | inhibition [2] [%] | inhibition [3] [%] | inhibition [4] [%] | inhibition [5] [%] | inhibition [6] [%] |
| --- | --- | --- | --- | --- | --- | --- |
| Clc1ccc(-c2nnc(-c3ccncc3)o2)cc1 | 9.01 (≈ 35 µM) | 53.8 | 39 | 43.6 | 12.8 | 24.4 |
| Nc1ccccc1-c1nnc(-c2cccc([N+](=O)[O-])c2)o1 | 16.04 (≈ 56.8 µM) | 30.8 | 19.7 | 25.2 | 5.51 | 14.2 |
| Nc1ccc(-c2nnc(-c3ccncc3)o2)cc1 | 12.08 (≈ 50.7 µM) | 41.4 | 24.8 | 33.1 | 8.27 | 16.5 |
| Nc1ccccc1-c1nnc(-c2ccc(Cl)cc2)o1 | 8.26 (≈ 30.4 µM) | 59.5 | 36.2 | 50 | 12.3 | 23.5 |
| O=[N+]([O-])c1cccc(-c2nnc(-c3ccncc3)o2)c1 | 6.99 (≈ 26.1 µM) | 71.2 | 42.5 | 57.7 | 15 | 28.7 |
| O=[N+]([O-])c1ccc(-c2nnc(-c3ccncc3)o2)cc1 | 12.47 (≈ 46.5 µM) | 39.8 | 23.2 | 31.5 | 6.66 | 14.9 |
| O=C1O[C@H]([C@@H](O)CO)C(O)=C1O [ASCORBIC ACID] | 5.68 (≈ 32.3 µM) | 87.3 | 53.2 | 69.3 | 18.2 | 35.3 |
| Nc1ccc(-c2nnc(-c3ccccc3N)o2)c(O)c1 | 20.05 (≈ 74.7 µM) | 24.9 | 14.9 | 19.9 | 4.98 | 9.97 |
| Nc1ccccc1-c1nnc(-c2ccccc2N)o1 | 7.76 (≈ 30.8 µM) | 64 | 38.6 | 52.1 | 12.1 | 25.8 |
| Cc1cccc(-c2nnc(-c3ccccc3N)o2)c1O | 6 (≈ 22.4 µM) | 81.9 | 48.8 | 64.9 | 15.9 | 31.9 |
